One experiment concerns the target xanthine oxidase (Homo sapiens, UniProt P47989). Description: Test on xanthine oxidase inhibition. The class given is biochemical.
A further experiment concerns Cox-2. Description: Inflammation inhibition in hepatocytes of gout-induced animal model (Cox-2 western blot of liver). Format: in vivo. The following applies: rat, 50 mg/kg oral for 3 days after potassium oxonate; compared to hyperuricemia control group (model control). The protocol: In order to confirm the inhibitory effect of the Angelica gigas Nakai extract of the present invention on the inflammation-inducing enzyme Cox-2, the uricase inhibitor, potassium oxonate was administered to induce hyperuricemia.
As the experimental animal, 9-week old male sprague-dawley rats (250-280 g, Samtako, Inc.) were acclimated in a SPF chamber where the humidity and temperature were maintained at 50±5% and 24˜26° C. and feed and water were supplied ad libitum for 1 week, and then used for the experiment.
In the present experiment, the uricase inhibitor, potassium oxonate (150 mg/kg) was intraperitoneally administered one day before sample treatment, so as to induce hyperuricemia. The contents of uric acid before and after administration of potassium oxonate were measured and compared to each other, in order to confirm the hyperuricemia induction by administration of potassium oxonate.
Potassium oxonate was suspended in 0.5% sodium carboxymethylcellulose (CMC-Na, 0.5% CMC with 0.1 M sodium acetate (pH5)), and used. […]
After oral administration for 3 days, the experimental animals were fasted overnight, and then anesthetized with dry ice. […] 100 mg was dissected from the whole liver, and proteins were separated using a cell lysis buffer, and the protein concentration was measured by BCA protein assay. […]
(A western blot detects proteins with antibodies after separation by electrophoresis.)

Values after ≈ are worked out from the molar mass of the structure shown.

xanthine oxidase, sequence (P47989 whole entry, species assumed): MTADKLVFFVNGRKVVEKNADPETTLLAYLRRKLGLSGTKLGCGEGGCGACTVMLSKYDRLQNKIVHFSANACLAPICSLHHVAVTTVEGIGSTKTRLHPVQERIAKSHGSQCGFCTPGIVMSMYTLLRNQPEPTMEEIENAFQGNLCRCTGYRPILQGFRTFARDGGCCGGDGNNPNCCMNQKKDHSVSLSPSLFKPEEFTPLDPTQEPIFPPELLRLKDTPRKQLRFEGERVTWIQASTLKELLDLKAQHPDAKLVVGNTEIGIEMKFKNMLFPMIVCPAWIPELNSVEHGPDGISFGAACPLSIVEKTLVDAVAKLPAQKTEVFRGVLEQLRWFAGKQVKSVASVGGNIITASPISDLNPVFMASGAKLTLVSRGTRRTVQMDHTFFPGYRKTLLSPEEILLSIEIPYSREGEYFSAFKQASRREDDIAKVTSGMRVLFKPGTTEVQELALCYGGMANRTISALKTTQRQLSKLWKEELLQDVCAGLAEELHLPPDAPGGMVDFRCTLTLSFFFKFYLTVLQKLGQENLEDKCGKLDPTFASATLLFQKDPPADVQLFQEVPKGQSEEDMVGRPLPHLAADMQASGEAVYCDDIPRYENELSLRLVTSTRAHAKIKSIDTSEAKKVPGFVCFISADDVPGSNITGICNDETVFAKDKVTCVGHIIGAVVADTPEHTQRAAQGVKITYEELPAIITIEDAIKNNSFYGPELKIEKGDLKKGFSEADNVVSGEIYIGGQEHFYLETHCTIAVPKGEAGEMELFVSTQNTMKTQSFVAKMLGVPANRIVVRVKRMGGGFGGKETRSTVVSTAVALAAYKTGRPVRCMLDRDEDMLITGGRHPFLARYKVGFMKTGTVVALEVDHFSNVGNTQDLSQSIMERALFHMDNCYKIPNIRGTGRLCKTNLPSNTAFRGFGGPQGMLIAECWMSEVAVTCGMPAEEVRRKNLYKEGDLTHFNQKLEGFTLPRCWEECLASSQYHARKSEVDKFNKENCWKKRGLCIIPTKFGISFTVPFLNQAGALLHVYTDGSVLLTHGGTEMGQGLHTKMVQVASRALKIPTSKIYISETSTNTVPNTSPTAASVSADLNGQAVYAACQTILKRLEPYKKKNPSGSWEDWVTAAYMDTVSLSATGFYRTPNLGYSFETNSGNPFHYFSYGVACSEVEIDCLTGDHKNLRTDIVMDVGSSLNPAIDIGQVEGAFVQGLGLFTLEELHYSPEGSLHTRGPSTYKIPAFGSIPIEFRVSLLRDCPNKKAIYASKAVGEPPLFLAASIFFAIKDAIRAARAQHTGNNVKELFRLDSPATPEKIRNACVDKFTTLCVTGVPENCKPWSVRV
Procedure for xanthine oxidase: In this experiment, xanthine was used as a substrate and xanthine oxidase was used as an enzyme to perform an enzyme-substrate reaction.
250 μl of 50 mM potassium phosphate buffer (pH 7.5), 385 μl of Angelica gigas Nakai extract solution (prepared by dilution with 50 mM potassium phosphate buffer (pH 7.5) until the final concentrations of decursin and decursinol angelate become 1, 5, 10, 17.5, 20, 50 μg/ml), and 330 μl of xanthine solution were mixed with each other to prepare a reaction solution.
35 μl of xanthine oxidase solution (final concentration of 0.4 U/ml) was added to the reaction solution, and reacted in a 37° C. incubator for 15 min. Then, absorbance (Ab) was measured at 295 nm.
Each reaction solution was also prepared using each Angelica gigas Nakai extract (each final concentration of decursin and decursinol angelate was 1, 5, 10, 17.5, 20, or 50 μg/ml) without addition of the xanthine oxidase solution. Further, in the absence of the Angelica gigas Nakai extract, each reaction solution was prepared with or without the xanthine oxidase solution. […]
A: a change in absorbance in the absence of composition (Absorbance with enzyme−Absorbance without enzyme)
B: a change in absorbance in the presence of composition (Absorbance with enzyme−Absorbance without enzyme)

On xanthine oxidase, `Oc1ncnc2[nH]ncc12` [allopurinol] yielded an IC90 of 38 µg/mL (≈ 279 µM). For the same molecule, in the experiment with Cox-2, the “Cox-2 expression in the hepatic tissue” value is given as “adversely increased”.

What is called IC90 is the concentration at which the effect reaches the 90% level.

(Values after patent US20110262567A1, “COMPOSITION FOR TREATING GOUT, CONTAINING ANGELICA GIGAS EXTRACT HAVING A XANTHINE OXIDASE-INHIBITING EFFECT AND AN INFLAMMATION-INDUCING ENZYME-INHIBITING EFFECT” (KOREA BIO HEALTH CO., LTD., priority 2008, published 2011).)
